Reference: PMC11289669, “BAR502/fibrate conjugates: synthesis, biological evaluation and metabolic profile” (Frontiers in Chemistry, 2024)
Several values for one entry are separate records, joined by “and”; a condition that tells them apart may be missing. Identical values can stand only once. Entries after “also recorded” stand apart in the source; their conditions may differ.

Experiments:
[1] = target: T1, PPARα (Homo sapiens, UniProt Q07869); assay: AlphaScreen coactivator (SRC-1) recruitment assay on PPARα; type: biochemical; conditions: AlphaScreen SRC-1 recruitment; compounds at 50 µM (footnote); fenofibrate = 100%
T1 construct: 20 nM PPARα LBD GST fused (Thermo Scientific); purchased Thermo Scientific
T1 sequence (Q07869 239-466 limits assumed): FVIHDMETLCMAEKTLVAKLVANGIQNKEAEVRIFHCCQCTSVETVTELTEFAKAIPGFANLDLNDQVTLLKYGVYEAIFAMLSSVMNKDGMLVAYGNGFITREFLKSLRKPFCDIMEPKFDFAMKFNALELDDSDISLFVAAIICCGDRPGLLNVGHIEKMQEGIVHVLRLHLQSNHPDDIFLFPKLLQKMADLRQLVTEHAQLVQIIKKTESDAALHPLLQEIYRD
Method: Compounds’ ability to mediate cofactor recruitment was evaluated by employing AlphaScreen GST Detection Kit (PerkinElmer). Particularly, FXR agonism was evaluated employing 10 nM FXR-LBD GST-fused (Thermo Scientific) and 30 nM of biotinylated SRC1 peptide ([…]) in the presence of 20 μg/mL donor and acceptor beads and in buffer containing 50 mM Tris-HCl (pH7.4), 20 mM KCl, 1 mM DTT, and 0.1% BSA. For PPARα assay, a buffer containing 50 mM MOPS, 50 mM NaF, 0.05 mM CHAPS, and 0.05% BSA (pH = 7.4) was used, and 20 nM PPARα LBD GST fused (Thermo Scientific) and 60 nM of biotinylated SRC1 peptide were employed. Both acceptor and donor beads were added to reach 20 μg/mL final concentration. Incubations were performed in a final volume of 25 μL employing 384 wells Optiplate and Alpha signal was measured with Envision 2,105 (Perkin Elmer) multimode plate reader. […]

[2] = system: U937 cells; assay: Pro-inflammatory gene expression (qRT-PCR) in LPS-activated U937 cells; type: cell-based, human; conditions: LPS 100 ng/mL, 18 h, compound 1 10 μM; for IL-1β mRNA expression / IL-6 mRNA expression: BAR502 and clofibrate 5 and 10 μM
Method: U937 cell line were cultured in RPMI 1640 supplemented with 10% FBS, 1% glutamine, and 1% penicillin/streptomycin and were regularly passaged to maintain exponential growth. After 24 h of starvation cells were classically activated with LPS (100 ng/mL; Sigma-Aldrich, St. Louis, MO), and exposed or not to BAR502, clofibrate and compound 1 at the concentration of 5 and 10 μM for 18 h. At the end of the experiment the cells were recovered. Total mRNA extraction from U937 and 3T3.L1 was performed using Tri-Reagent (Zymo Research) and Direct-zolTM RNA MiniPrep w/Zymo-SpinTM IIC Columns (Zymo Research, Irvine, CA). After purification from genomic DNA using DNase I (Thermo Fisher Scientific, Waltham, MA), 1 μg of RNA from each sample was reverse transcribed using Kit […] Basic (Nippon Genetics, […] 20-μL of reaction volume; 50 ng of cDNA was amplified in a 20-μL solution containing 200 nM each primer and 10 μL of PowerUpTM SYBRTM Green Master Mix (Thermo Fisher Scientific, Waltham, MA). All reactions were performed in triplicate using the following thermal cycling conditions: 3 min at 95°C, followed by 40 cycles of 95°C for 15 s, 56°C for 20 s, and 72°C for 30 s, using a QuantStudio 3 system (Applied Biosystems, Foster City, CA). The relative mRNA expression was calculated accordingly to the ΔCt method. Primers were designed using the software PRIMER3 (http://frodo.wi.mit.edu/primer3/) using published data obtained from the NCBI database. The primer used were as following (forward and reverse): hGAPDH (for […]-1β (for [NT], hIL6 (for [NT] hCXCL2 (for [NT] hTNFα; (for [NT], mAdiponectin (for […]ɤ (for [NT], mCebp (for [NT]

[3] = Chemical stability in HCl buffer, PBS buffer and culture medium by LC-MS; type: physicochemical; conditions: 10 μM
Method: (§1) Chemical stability in HCl Buffer, PBS buffer and culture medium (EMEM) was evaluated by LC-MS dissolving compound 1 at 10 μM (final concertation) in cited buffers and injecting aliquots removed from incubations at different time points. Microsomal stability was evaluated employing 50 mM potassium phosphate buffer (pH 7.4) containing 0.15 mg of Human liver microsomes (Sigma-Aldrich, St. Louis, MO, United States) 5 mM MgCl2, 1 mM NADPH, 5 mM glucose 6-phosphate, 0.4 U·mL^−1 glucose 6-phosphate dehydrogenase. Compounds were tested at 1 µM final concentration. Aliquots, removed at different time points, were diluted with ice-cold acetonitrile and analyzed by LC-MS.

[4] = Microsomal stability in human liver microsomes; type: in vitro ADME; conditions: pH 7.4, 1 µM
Method: as §1

[5] = In cell permeation and metabolism in HepG2 cells (LC-MSMS); type: in vitro ADME, human; conditions: 0–480 min
Method: HepG2 cells were treated with compound 1, BAR502 or clofibrate. At different time points (0–480 min) culture mediums and cells pellets were collected, extracted by adding ice-cold acetonitrile and analyzed by LC-MSMS.

[6] = Plasma profile / metabolite quantization in mice (LC-MS MRM); type: in vivo

SMILES | PPARα efficacy (% vs. fenofibrate) [1] | IL-1β mRNA expression [2] | IL-6 mRNA expression [2] | CXCL2 mRNA expression [2] | Chemical stability in HCl buffer ([3]; HCl buffer, 2h) | Chemical stability in PBS buffer ([3]; PBS buffer pH 7.4, 8 h) | Chemical stability in culture medium ([3]; culture medium (EMEM), 8 h) | microsomal CLint at 1 µM [4] [µL/min/mg] | half-life at 1 µM ([4]; read-out: t1/2 in human microsomes) [min] | Cell permeation (amount in cell pellets) compared to BAR502 [5] | Hydrolysis to clofibric acid in cells compared with clofibrate [5] | Plasma level of oxidized metabolite BAR505 ([6]; mice treated with compound 1, 30 mg/kg) | Plasma clofibric acid released, compared with that from clofibrate ([6]; mice, 30 mg/kg) | Unmodified compound in plasma ([6]; mice, 30 mg/kg, 0-8 h)
CC[C@H]1[C@@H](O)[C@@H]2[C@H](CC[C@]3(C)[C@@H]([C@H](C)CCO)CC[C@@H]23)[C@@]2(C)CC[C@@H](O)C[C@@H]12 [BAR502, 6α-ethyl-3α,7α-dihydroxy-24-nor-5β-cholan-23-ol] | 36% and 36 ± 12% | reducing the expression of pro-inflammatory cytokines | reducing the expression of pro-inflammatory cytokines | – | – | – | – | – | – | – | – | – | – | –
CC[C@@H]1C2C[C@H](O)CC[C@]2(C)C2CC[C@@]3(C)C(CC[C@@H]3[C@H](C)CCOC(=O)C(C)(C)Oc3ccc(Cl)cc3)C2[C@@H]1O (stereo partly shown) [Compound 1] | – | greatest efficacy in reducing the expression | greatest efficacy in reducing the expression | the only compound also reducing the expression | stable | stable | stable | 87 | 27 | higher cell permeation | hydrolyzed more slowly | highly abundant species | superimposable | not detected; also recorded: not found
